In PubChem BioAssay (NCI):
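Test compounds were applied to cells in 96-well plates for 48 hours at 5 doses. GI50 is the concentration that inhibits growth by half. At the TGI there is no net growth.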

Key:
Assay in all cases: NCI-60 cell line screen, 48 h
LOX IMVI melanoma = test system: LOX IMVI melanoma
SK-MEL-28 melanoma = test system: SK-MEL-28 melanoma
OVCAR-5 ovarian = test system: OVCAR-5 ovarian
HCC-2998 colon = test system: HCC-2998 colon
HCT-15 colon = test system: HCT-15 colon
HL-60(TB) leukemia = test system: HL-60(TB) leukemia
COLO 205 colon = test system: COLO 205 colon
CAKI-1 renal = test system: CAKI-1 renal
PC-3 prostate = test system: PC-3 prostate
BT-549 breast = test system: BT-549 breast

SMILES | TGI (LOX IMVI melanoma) [µM] | TGI (SK-MEL-28 melanoma) [µM] | TGI (OVCAR-5 ovarian) [µM] | TGI (HCC-2998 colon) [µM] | TGI (HCT-15 colon) [µM] | TGI (HL-60(TB) leukemia) [µM] | TGI (COLO 205 colon) [µM] | TGI (CAKI-1 renal) [µM] | GI50 (PC-3 prostate) [µM] | TGI (PC-3 prostate) [µM] | GI50 (SK-MEL-28 melanoma) [µM] | GI50 (OVCAR-5 ovarian) [µM] | GI50 (BT-549 breast) [µM] | TGI (BT-549 breast) [µM] | GI50 (HCT-15 colon) [µM] | GI50 (HL-60(TB) leukemia) [µM] | GI50 (COLO 205 colon) [µM] | GI50 (CAKI-1 renal) [µM] | GI50 (LOX IMVI melanoma) [µM]
CN/N=C(/Cc1occc(=O)c1O)C(=O)Nc1ccc(C)c(C)c1 | > 100 | > 100 | > 100 | > 100 | > 100 | > 100 | > 100 | > 100 | – | – | – | – | – | – | – | – | – | – | –
CC(=O)Nc1ccc(/C=C(\NC(=O)c2ccccc2)c2nc3ccc4c(c3[nH]2)C(=O)c2ccccc2C4=O)cc1 | > 100 | > 100 | > 100 | > 100 | > 100 | – | > 100 | > 100 | – | – | – | – | – | – | – | – | – | – | –
COc1cccc(N2C(=O)c3c(c4[nH]c5ccccc5c4c4ccc(C(C)(C)C)cc34)C2=O)c1 | > 100 | > 100 | > 100 | > 100 | > 100 | – | > 100 | > 100 | – | – | – | – | – | – | – | – | – | – | –
COc1nc2c(OC)cccc2c(OC)c1C=O | > 100 | > 100 | – | – | > 100 | > 100 | > 100 | – | – | – | – | – | – | – | – | – | – | – | –
C/C(=N\NC(=S)N1CCCCCC1)c1nccnc1C | > 100 | > 100 | > 100 | > 100 | > 100 | 2.95 | – | > 100 | – | – | – | – | – | – | – | – | – | – | –
COc1ccc(-c2ccc(C3CC(c4ccc(O)cc4)=NN3)o2)c([N+](=O)[O-])c1 (configuration not stated) | – | > 100 | > 100 | – | > 100 | 38.8 | 82.7 | > 100 | 25.9 | > 100 | 45.8 | > 100 | 32.8 | > 100 | 35.4 | 13 | 27.2 | 34.4 | –
Cn1ncc(=S)[nH]c1=S | > 100 | > 100 | > 100 | – | > 100 | – | > 100 | – | – | – | – | – | – | – | – | – | – | – | –
O=C(Nc1ccc(Cl)c(C(F)(F)F)c1)C(=O)C(C(=O)/C=C/c1ccccc1)C1OC(=O)c2ccccc21 (configuration not stated) | > 100 | – | > 100 | > 100 | > 100 | > 100 | > 100 | > 100 | – | – | – | – | – | – | – | – | – | – | –
CC(=O)N1CCC2(C=Nc3ccccc32)CC1 | > 100 | > 100 | > 100 | > 100 | > 100 | > 100 | > 100 | > 100 | – | – | – | – | – | – | – | – | – | – | –
O=C(O)c1ccc(S(=O)(=O)c2ccccc2)c([N+](=O)[O-])c1 | > 100 | > 100 | > 100 | > 100 | > 100 | > 100 | > 100 | > 100 | – | – | – | – | – | – | – | – | – | – | –
COC(=O)C1(C)C=C(Nc2ccccc2)C(=O)N1c1ccccc1 (configuration not stated) | > 100 | > 100 | > 100 | > 100 | – | > 100 | – | > 100 | – | – | – | – | – | – | – | – | – | – | –
Cc1cc2c(cc1C)NC(=O)C(NC(=O)/C=C/c1ccccc1)C=N2 (configuration not stated) | 55.3 | > 100 | > 100 | > 100 | 40.4 | 43.5 | 34.6 | > 100 | – | – | – | – | – | – | – | – | – | – | –
CC(=O)N(C)OC(=O)CC(=O)c1ccccc1 | > 100 | > 100 | > 100 | > 100 | – | > 100 | > 100 | > 100 | – | – | – | – | – | – | – | – | – | – | –
CN(N=O)C(=O)Nc1c[nH]c(=O)[nH]c1=O | > 100 | > 100 | > 100 | > 100 | > 100 | > 100 | > 100 | > 100 | – | > 100 | – | – | – | – | – | – | – | – | –
COc1ccc(OCC(=O)O)c2c1CCC(C(C)C)C2=O (configuration not stated) | > 100 | > 100 | > 100 | > 100 | – | > 100 | > 100 | > 100 | – | – | – | – | – | – | – | – | – | – | –
CCOC(=N)CC(=O)Nc1ccc(Cl)cc1 | > 100 | > 100 | > 100 | > 100 | > 100 | > 100 | > 100 | > 100 | – | – | – | – | – | – | – | – | – | – | –
CC(C)(C)[Si](C)(C)OCC1CCC(n2cnc3c(NC(=O)c4ccccc4)ncnc32)O1 (configuration not stated) | 37.1 | 27.9 | 32.3 | 36.2 | 39.2 | 38.2 | 35.6 | 46.9 | – | 52.6 | – | – | – | – | – | – | – | – | –
CCCCCCCCCCCCCS(=O)(=O)O | > 100 | > 100 | > 100 | > 100 | > 100 | > 100 | > 100 | – | – | – | – | – | – | – | – | – | – | – | –
Oc1ccc2ccccc2c1C=NCCCN=Cc1c(O)ccc2ccccc12 | 19.4 | > 100 | 81.4 | – | 28.5 | > 100 | 31.1 | 49.5 | 21.6 | > 100 | 15.8 | 28.4 | 18.5 | 47.8 | 5.13 | 24.1 | 15.9 | 15.7 | 6.89
